Measurements taken from patent US8778984B2, “Aldosterone synthase inhibitor” (Eli Lilly and Company, priority 2011, dated 2014).

Legend:
human cyp11B2 = molecular target: T1, human cyp11B2 (Homo sapiens, UniProt P19099); assay: Aldosterone Synthase Inhibitor Assay (V79-hcyp11B2 cells, aldosterone by LC-MS); format: cell-based; conditions: aldosterone production from 1 μM DOC, 24 hours incubation, geometric means, separate experiments
T1 construct: expressed in transfected cells
T1 sequence (P19099 25-503): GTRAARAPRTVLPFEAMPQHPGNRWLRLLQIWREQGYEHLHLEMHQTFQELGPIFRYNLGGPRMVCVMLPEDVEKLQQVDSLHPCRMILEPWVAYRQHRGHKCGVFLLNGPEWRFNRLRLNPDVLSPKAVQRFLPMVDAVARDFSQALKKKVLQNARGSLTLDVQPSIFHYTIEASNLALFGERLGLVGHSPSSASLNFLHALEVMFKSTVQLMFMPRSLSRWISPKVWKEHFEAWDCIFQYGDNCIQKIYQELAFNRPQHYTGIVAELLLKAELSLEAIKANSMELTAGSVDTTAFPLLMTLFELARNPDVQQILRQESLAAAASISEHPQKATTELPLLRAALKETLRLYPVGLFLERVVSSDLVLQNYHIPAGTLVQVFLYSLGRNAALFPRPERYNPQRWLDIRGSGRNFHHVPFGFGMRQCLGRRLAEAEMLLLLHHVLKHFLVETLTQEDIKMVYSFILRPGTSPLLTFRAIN
Description: Chinese hamster fibroblast cells (V79, ATCC™) constitutively expressing human cyp11B2 are established by transfection with a mammalian expression vector harboring the human cyp11B2 cDNA under CMV promoter and a neomycin antibiotic resistant gene for selection in mammalian cells. V79 cells are transfected in T225 cm^2 flasks with the lipofectamine transfection reagent and the human cyp11B2 cDNA. Positive clones are selected with the selection antibiotic geneticin at 1 mg/mL.
Aldosterone production from transfected cells is initiated by the addition of 1 μM DOC in the medium. After 24 hours incubation, 100 μL cell culture medium is collected and aldosterone concentration in the medium is determined using a liquid chromatography-mass spectrometry (LC-MS) method. […] The wells are then extracted 3× with EtOAc (150 μl) using the FX, combining the organic layers in a new 96-well plate. The solvent is dried in a GeneVac HT-4 or under nitrogen. […] A 25 μl aliquot of the sample is injected and a gradient from 20-100% ACN+0.1% formic acid (FA) in 1 min is initiated. Aldosterone elutes at 0.7 min. Starting conditions are held for 1 minute to re-equilibrate the column. An ABI 4000 tandem mass spectrometer is used for MS/MS analysis in the negative ion mode. […] The area under the peak from each transition is added together to comprise the signal from aldosterone and IS, respectively. […] The detection limit for aldosterone is […].
DOC and various concentrations of test compounds in 1:3 dilution increments are added to the cell culture medium. After 24 hours incubation, 100 μl of cell medium are collected and aldosterone concentration determined as described above. Data are fit to a 4 parameter-fit logistics curve to determine IC50 values.

[1] = system: estradiol production from H295R cells; assay: cells; format: cell-based, human; conditions: for inhibition of estradiol production (in words) / IC50: H295R cells; for IC50: Homo sapiens, NCI-H295R, 48 hours incubation, read-out: Estradiol IC50; for Selectivity ratio for aldosterone compared with estradiol: estradiol IC50 (H295R) relative to aldosterone IC50 (hcyp11B2)
Description: (§1) The human adrenocarcinoma cell line H295R is used to monitor the production of testosterone and estradiol in vitro. […] Various concentrations of test compounds in 1:3 dilution increments are added to the cell culture medium. After incubation for 48 hours, 100 μl culture medium is collected and d5-estradiol and d3-testosterone are added as ISs for estradiol and testosterone respectively.
(§2) An equal volume of sodium carbonate/sodium bicarbonate buffer (0.5 mol/L, pH 9.4) is added to the samples followed by freshly prepared dansyl chloride solution (50 μl, 20 mg/mL). Samples are mixed and incubated for 60 min at 60° C. The samples are then extracted 3× with EtOAc ([…]) using the FX, combining the organic layers in a new deep-well 96-well plate. The solvent is then dried in a GeneVac HT-4 or under nitrogen. The FX is used to reconstitute the samples in 50% MeOH/water ([…]) and the plates are heat-sealed.
(§3) A 40 μl aliquot of the sample is injected and a gradient from 20-100% MeOH in 0.95 min is initiated. An ABI QTRAP 4000 tandem mass spectrometer is used for MS/MS analysis in the positive ion mode. […] These peaks are separately integrated to give the peak areas. The area ratios of testosterone/IS and estradiol/IS are used to determine testosterone and estradiol concentrations by comparison to their respective standard curves. The detection limits for testosterone and estradiol are 0.1 ng/mL and 0.01 ng/mL respectively.

[2] = system: testosterone production from H295R cells; assay: cells; format: cell-based, human; conditions: for inhibition of testosterone production (in words) / IC50: H295R cells; for IC50: Homo sapiens, NCI-H295R, 48 hours incubation, read-out: Testosterone IC50; for Selectivity ratio for aldosterone compared with testosterone: testosterone IC50 (H295R) relative to aldosterone IC50 (hcyp11B2)
Description: as §1, §2, §3

[3] = molecular target: T2, cynomolgus monkey cyp11B2 (Macaca fascicularis, UniProt A0A2K5UPL9); assay: Cynomolgus Monkey Aldosterone Inhibition Assay; format: cell-based; conditions: V79 cells expressing cynomolgus monkey cyp11B2; n=1; read-out: relative IC50, cynomolgus monkey aldosterone inhibition assay
T2 construct: expressed in transfected cells; host or cells: Chinese hamster fibroblast V79 cells
T2 sequence (A0A2K5UPL9 1-503): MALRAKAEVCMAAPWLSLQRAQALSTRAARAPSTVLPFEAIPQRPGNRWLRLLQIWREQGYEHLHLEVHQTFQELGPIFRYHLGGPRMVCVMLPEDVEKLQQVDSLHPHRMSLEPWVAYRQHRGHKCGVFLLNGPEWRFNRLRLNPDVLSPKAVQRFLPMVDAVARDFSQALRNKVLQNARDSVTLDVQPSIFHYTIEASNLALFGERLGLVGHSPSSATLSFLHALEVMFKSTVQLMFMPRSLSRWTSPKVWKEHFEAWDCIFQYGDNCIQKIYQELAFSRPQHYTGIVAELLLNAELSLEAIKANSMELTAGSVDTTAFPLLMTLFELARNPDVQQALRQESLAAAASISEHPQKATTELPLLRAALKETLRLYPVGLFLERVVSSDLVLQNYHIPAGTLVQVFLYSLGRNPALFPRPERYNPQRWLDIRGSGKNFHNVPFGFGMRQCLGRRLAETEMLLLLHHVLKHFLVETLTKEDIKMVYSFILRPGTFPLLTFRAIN
Description: Chinese hamster fibroblast cells (V79) constitutively expressing cynomolgus monkey cyp11B2 is established by transfection with a mammalian expression vector harboring the cynomolgus monkey cyp11B2 cDNA. This cell line was used to measure the activity of compounds in inhibiting […] from cynomolgus monkey enzyme. Cell culture condition and aldosterone detection method is performed following the same protocol described in the “Aldosterone inhibition assay”.

[4] = molecular target: cynomolgus monkey cyp11B1 (Macaca fascicularis, UniProt A0A2K5ULY1); assay: Cynomolgus Monkey Cortisol Inhibition Assay; format: cell-based; conditions: V79 cells expressing cynomolgus monkey cyp11B1; n=1; read-out: relative IC50, cynomolgus monkey cortisol inhibition assay
Chain of cynomolgus monkey cyp11B1 (A0A2K5ULY1 entry or part of it): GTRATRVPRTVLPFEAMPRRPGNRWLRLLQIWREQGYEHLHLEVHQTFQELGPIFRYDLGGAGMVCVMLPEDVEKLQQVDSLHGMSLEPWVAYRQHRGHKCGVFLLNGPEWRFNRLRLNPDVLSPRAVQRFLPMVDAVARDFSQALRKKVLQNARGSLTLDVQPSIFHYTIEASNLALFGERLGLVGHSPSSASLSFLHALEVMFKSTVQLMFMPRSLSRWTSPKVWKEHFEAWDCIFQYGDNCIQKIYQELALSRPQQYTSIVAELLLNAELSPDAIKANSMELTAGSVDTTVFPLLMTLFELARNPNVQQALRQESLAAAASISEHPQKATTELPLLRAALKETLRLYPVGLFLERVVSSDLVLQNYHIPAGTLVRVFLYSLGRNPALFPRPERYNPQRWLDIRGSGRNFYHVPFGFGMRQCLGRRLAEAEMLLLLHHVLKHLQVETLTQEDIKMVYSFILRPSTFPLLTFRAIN
Description: Chinese hamster fibroblast cells (V79) constitutively expressing cynomolgus monkey cyp11B1 is established by transfection with a mammalian expression vector harboring the cynomolgus monkey cyp11B1 cDNA. This cell line was used to measure the activity of compounds in inhibiting […] from cynomolgus monkey enzyme. Cell culture condition and cortisol detection method is performed following the same protocol described in the “cortisol inhibition assay”.

Row | Compound | IC50 (human cyp11B2) [nM] | inhibition of estradiol production (in words) [1] | IC50 [1] [µM] | Selectivity ratio for aldosterone compared with estradiol [1] | inhibition of testosterone production (in words) [2] | IC50 [2] [µM] | Selectivity ratio for aldosterone compared with testosterone [2] | IC50 [3] [nM] | IC50 [4] [nM]
1 | CC1(C)CC(c2ccc(C#N)cc2F)c2cn[nH]c21 (single isomer, unassigned; isomer 1) [Example 49, 4-(6,6-Dimethyl-4,5-dihydro-1H-cyclopenta[c]pyrazol-4-yl)-3-fluoro-benzonitrile, isomer 1] | 7 | weak inhibition | 22 | 3143 | weak inhibition | > 30 | >4285 | 4.1 | 579
2 | CC1(C)C[C@H](c2ccc(C#N)cc2)c2cn[nH]c21 (single isomer, unassigned) [Example 1] | 5 | weak inhibition | 13.2 | 2640 | weak inhibition | > 30 | >6000 | 2.46 | 209
